Values after ≈ are worked out from the molar mass of the structure shown.
Experiments:
Talaromyces marneffei [1] = test: Antifungal activity against Talaromyces marneffei assessed as growth inhibition at […] to […] ug/ml after 3 to 4 days by agar well diffusion method; assay type: functional
Aspergillus fumigatus [2] = test: Antifungal activity against Aspergillus fumigatus NCIM 902 assessed as growth inhibition at […] to […] ug/ml after 3 to 4 days by agar well diffusion method; assay type: functional
Aspergillus flavus [3] = test: Antifungal activity against Aspergillus flavus NCIM 524 assessed as growth inhibition at […] to […] ug/ml after 3 to 4 days by agar well diffusion method; assay type: functional
Candida albicans [4] = test: Antifungal activity against Candida albicans assessed as growth inhibition after 3 to 4 days by serial plate dilution method; assay type: functional
[5] = tested on: Trichophyton mentagrophytes; test: Antifungal activity against Trichophyton mentagrophytes assessed as growth inhibition after 3 to 4 days by serial plate dilution method; assay type: functional
Talaromyces marneffei [6] = test: Antifungal activity against Talaromyces marneffei assessed as growth inhibition after 3 to 4 days by serial plate dilution method; assay type: functional
Aspergillus fumigatus [7] = test: Antifungal activity against Aspergillus fumigatus NCIM 902 assessed as growth inhibition after 3 to 4 days by serial plate dilution method; assay type: functional
Aspergillus flavus [8] = test: Antifungal activity against Aspergillus flavus NCIM 524 assessed as growth inhibition after 3 to 4 days by serial plate dilution method; assay type: functional
Streptococcus pyogenes [9] = assay type: functional
Description: Antibacterial activity against Streptococcus pyogenes assessed as growth inhibition at 1.56 to 25 ug/ml after 3 to 4 days by agar well diffusion method

Klebsiella pneumoniae [10] = assay type: functional
Description: Antibacterial activity against Klebsiella pneumoniae assessed as growth inhibition at 1.56 to 25 ug/ml after 3 to 4 days by agar well diffusion method

Pseudomonas aeruginosa [11] = assay type: functional, ATCC 27853
Description: Antibacterial activity against Pseudomonas aeruginosa ATCC 27853 assessed as growth inhibition at 1.56 to 25 ug/ml after 3 to 4 days by agar well diffusion method

Staphylococcus aureus [12] = assay type: functional, ATCC 25923
Description: Antibacterial activity against Staphylococcus aureus ATCC 25923 assessed as growth inhibition at 1.56 to 25 ug/ml after 3 to 4 days by agar well diffusion method

Streptococcus pyogenes [13] = test: Antibacterial activity against Streptococcus pyogenes assessed as growth inhibition after 16 to 18 hr by serial plate dilution method; assay type: functional
[14] = tested on: Mycobacterium tuberculosis; test: Antitubercular activity against Mycobacterium tuberculosis H37Rv ATCC 27294 assessed as growth inhibition at 0.3125 to 5 ug/mL after 7 days by resazurin reduction test; assay type: functional; settings: H37Rv ATCC 27294, 168 h
[15] = tested on: Mycolicibacterium smegmatis; test: Antitubercular activity against Mycobacterium smegmatis ATCC 19420 assessed as growth inhibition at 1 to 100 ug/mL after 7 days by resazurin reduction test; assay type: functional; settings: ATCC 19420, 168 h
[16] = tested on: Mycolicibacterium fortuitum; test: Antitubercular activity against Mycobacterium fortuitum ATCC 19542 assessed as growth inhibition at 1 to 100 ug/mL after 7 days by resazurin reduction test; assay type: functional; settings: ATCC 19542, 168 h
[17] = tested on: Mycobacterium tuberculosis; test: Antitubercular activity against Mycobacterium tuberculosis H37Rv ATCC 27294 assessed as growth inhibition at 1 to 100 ug/mL after 7 days by resazurin reduction test; assay type: functional; settings: for MIC: Mycobacterium tuberculosis, H37Rv ATCC 27294, 168 h
Candida albicans [18] = test: Antifungal activity against Candida albicans assessed as growth inhibition at […] to […] ug/ml after 3 to 4 days by agar well diffusion method; assay type: functional
[19] = tested on: Trichophyton mentagrophytes; test: Antifungal activity against Trichophyton mentagrophytes assessed as growth inhibition at […] to […] ug/ml after 3 to 4 days by agar well diffusion method; assay type: functional
Klebsiella pneumoniae [20] = test: Antibacterial activity against Klebsiella pneumoniae assessed as growth inhibition after 16 to 18 hr by serial plate dilution method; assay type: functional
Pseudomonas aeruginosa [21] = test: Antibacterial activity against Pseudomonas aeruginosa ATCC 27853 assessed as growth inhibition after 16 to 18 hr by serial plate dilution method; assay type: functional
Escherichia coli [22] = test: Antibacterial activity against Escherichia coli […] assessed as growth inhibition after 16 to 18 hr by serial plate dilution method; assay type: functional
Staphylococcus aureus [23] = test: Antibacterial activity against Staphylococcus aureus ATCC 25923 assessed as growth inhibition after 16 to 18 hr by serial plate dilution method; assay type: functional
Escherichia coli [24] = assay type: functional, ATCC 24922
Description: Antibacterial activity against Escherichia coli ATCC 24922 assessed as growth inhibition at 1.56 to 25 ug/ml after 3 to 4 days by agar well diffusion method

[25] = tested on: Mycolicibacterium fortuitum; test: Antitubercular activity against Mycobacterium fortuitum ATCC 19542 assessed as growth inhibition at 0.3125 to 5 ug/mL after 7 days by resazurin reduction test; assay type: functional; settings: ATCC 19542, 168 h

Cc1c(CNC(=O)CCc2c[nH]c3ccc(Cl)cc23)c2cc(OC(F)(F)F)ccc2n1C was tested. Which “diameter of the inhibition zone (DIZ)” value (Talaromyces marneffei [1]) did it give?
The value was 11 mm.

What about the “diameter of the inhibition zone (DIZ)” value (Aspergillus fumigatus [2]) of the same compound?
Its value is 11 mm.

And the “diameter of the inhibition zone (DIZ)” value (Aspergillus flavus [3])?
The value was 11 mm.

What about the MIC (Candida albicans [4]) of the same compound?
Its MIC is 6.25 µg/mL (≈ 13.5 µM).

And the MIC [5]?
The MIC was 12.5 µg/mL (≈ 26.9 µM).

What about the MIC (Talaromyces marneffei [6]) of the same compound?
The MIC was 12.5 µg/mL (≈ 26.9 µM).

And the MIC (Aspergillus fumigatus [7])?
The MIC was 12.5 µg/mL (≈ 26.9 µM).

And the MIC (Aspergillus flavus [8])?
Its MIC is 12.5 µg/mL (≈ 26.9 µM).

What about the “diameter of the inhibition zone (DIZ)” value (Streptococcus pyogenes [9]) of the same compound?
The value was under 10 mm.

And the “diameter of the inhibition zone (DIZ)” value (Klebsiella pneumoniae [10])?
Its value is under 10 mm.

And the “diameter of the inhibition zone (DIZ)” value (Pseudomonas aeruginosa [11])?
The value was 16 mm.

What about the “diameter of the inhibition zone (DIZ)” value (Staphylococcus aureus [12]) of the same compound?
The value was 16 mm.

And the MIC (Streptococcus pyogenes [13])?
The MIC was 25 µg/mL (≈ 53.9 µM).

And the MIC [14]?
The MIC was 5 µg/mL (≈ 10.8 µM).

What about the MIC [15] of the same compound?
The MIC was 10 µg/mL (≈ 21.6 µM).

And the MIC [16]?
The MIC was over 100 µg/mL.

And the “growth inhibition (GI)” value [17]?
The value was under 90%.

And the MIC [17]?
The MIC was over 100 µg/mL.

What about the “diameter of the inhibition zone (DIZ)” value (Candida albicans [18]) of the same compound?
The value was 16 mm.

And the “diameter of the inhibition zone (DIZ)” value [19]?
The value was 11 mm.

And the MIC (Klebsiella pneumoniae [20])?
The MIC was 25 µg/mL (≈ 53.9 µM).

And the MIC (Pseudomonas aeruginosa [21])?
Its MIC is 6.25 µg/mL (≈ 13.5 µM).

What about the MIC (Escherichia coli [22]) of the same compound?
The MIC was 12.5 µg/mL (≈ 26.9 µM).

What about the MIC (Staphylococcus aureus [23]) of the same compound?
Its MIC is 6.25 µg/mL (≈ 13.5 µM).

And the “diameter of the inhibition zone (DIZ)” value (Escherichia coli [24])?
The value was 11 mm.

How did the “diameter of the inhibition zone (DIZ)” value (Talaromyces marneffei [1]) turn out when Cn1cc(CNC(=O)CCc2c[nH]c3ccc(Cl)cc23)c2cc(Cl)ccc21 was run?
The value was 16 mm.

What about the “diameter of the inhibition zone (DIZ)” value (Aspergillus fumigatus [2]) of the same compound?
Its value is 16 mm.

What about the “diameter of the inhibition zone (DIZ)” value (Aspergillus flavus [3]) of the same compound?
Its value is 16 mm.

What about the MIC (Candida albicans [4]) of the same compound?
Its MIC is 6.25 µg/mL (≈ 15.6 µM).

And the MIC [5]?
The MIC was 6.25 µg/mL (≈ 15.6 µM).

And the MIC (Talaromyces marneffei [6])?
Its MIC is 6.25 µg/mL (≈ 15.6 µM).

And the MIC (Aspergillus fumigatus [7])?
Its MIC is 6.25 µg/mL (≈ 15.6 µM).

What about the MIC (Aspergillus flavus [8]) of the same compound?
The MIC was 6.25 µg/mL (≈ 15.6 µM).

What about the “diameter of the inhibition zone (DIZ)” value (Streptococcus pyogenes [9]) of the same compound?
Its value is 16 mm.

And the “diameter of the inhibition zone (DIZ)” value (Klebsiella pneumoniae [10])?
Its value is 11 mm.

What about the “diameter of the inhibition zone (DIZ)” value (Pseudomonas aeruginosa [11]) of the same compound?
Its value is under 10 mm.

What about the “diameter of the inhibition zone (DIZ)” value (Staphylococcus aureus [12]) of the same compound?
The value was 11 mm.

And the MIC (Streptococcus pyogenes [13])?
Its MIC is 6.25 µg/mL (≈ 15.6 µM).

What about the MIC [25] of the same compound?
Its MIC is 10 µg/mL (≈ 25 µM).

What about the MIC [14] of the same compound?
The MIC was 1.25 µg/mL (≈ 3.12 µM).

And the MIC [15]?
The MIC was 10 µg/mL (≈ 25 µM).

What about the MIC [16] of the same compound?
Its MIC is 10 µg/mL (≈ 25 µM).

What about the “growth inhibition (GI)” value [17] of the same compound?
Its value is 90%.

What about the MIC [17] of the same compound?
Its MIC is over 100 µg/mL.

What about the “diameter of the inhibition zone (DIZ)” value (Candida albicans [18]) of the same compound?
The value was 16 mm.

And the “diameter of the inhibition zone (DIZ)” value [19]?
Its value is 16 mm.

And the MIC (Klebsiella pneumoniae [20])?
The MIC was 12.5 µg/mL (≈ 31.2 µM).

What about the MIC (Pseudomonas aeruginosa [21]) of the same compound?
The MIC was 25 µg/mL (≈ 62.5 µM).

What about the MIC (Escherichia coli [22]) of the same compound?
Its MIC is 12.5 µg/mL (≈ 31.2 µM).

And the MIC (Staphylococcus aureus [23])?
The MIC was 12.5 µg/mL (≈ 31.2 µM).

And the “diameter of the inhibition zone (DIZ)” value (Escherichia coli [24])?
Its value is 11 mm.

How did the “diameter of the inhibition zone (DIZ)” value (Talaromyces marneffei [1]) turn out when Cc1c(CNC(=O)CCc2cn(C)c3ccc(Cl)cc23)c2cc(OC(F)(F)F)ccc2n1C was run?
The value was under 10 mm.

What about the “diameter of the inhibition zone (DIZ)” value (Aspergillus fumigatus [2]) of the same compound?
Its value is 16 mm.

And the “diameter of the inhibition zone (DIZ)” value (Aspergillus flavus [3])?
The value was under 10 mm.

And the MIC (Candida albicans [4])?
The MIC was 12.5 µg/mL (≈ 26.2 µM).

And the MIC [5]?
Its MIC is 6.25 µg/mL (≈ 13.1 µM).

And the MIC (Talaromyces marneffei [6])?
Its MIC is 25 µg/mL (≈ 52.3 µM).

And the MIC (Aspergillus fumigatus [7])?
Its MIC is 6.25 µg/mL (≈ 13.1 µM).

And the MIC (Aspergillus flavus [8])?
The MIC was 25 µg/mL (≈ 52.3 µM).

What about the “diameter of the inhibition zone (DIZ)” value (Streptococcus pyogenes [9]) of the same compound?
Its value is under 10 mm.

And the “diameter of the inhibition zone (DIZ)” value (Klebsiella pneumoniae [10])?
The value was 11 mm.

And the “diameter of the inhibition zone (DIZ)” value (Pseudomonas aeruginosa [11])?
The value was under 10 mm.

And the “diameter of the inhibition zone (DIZ)” value (Staphylococcus aureus [12])?
Its value is 11 mm.

What about the MIC (Streptococcus pyogenes [13]) of the same compound?
The MIC was 25 µg/mL (≈ 52.3 µM).

And the MIC [14]?
The MIC was 5 µg/mL (≈ 10.5 µM).

What about the MIC [15] of the same compound?
The MIC was 10 µg/mL (≈ 20.9 µM).

What about the MIC [16] of the same compound?
The MIC was over 100 µg/mL.

What about the “growth inhibition (GI)” value [17] of the same compound?
The value was under 90%.

And the MIC [17]?
Its MIC is over 100 µg/mL.

What about the “diameter of the inhibition zone (DIZ)” value (Candida albicans [18]) of the same compound?
Its value is 11 mm.

What about the “diameter of the inhibition zone (DIZ)” value [19] of the same compound?
The value was 16 mm.

What about the MIC (Klebsiella pneumoniae [20]) of the same compound?
The MIC was 12.5 µg/mL (≈ 26.2 µM).

And the MIC (Pseudomonas aeruginosa [21])?
The MIC was 25 µg/mL (≈ 52.3 µM).

What about the MIC (Escherichia coli [22]) of the same compound?
Its MIC is 12.5 µg/mL (≈ 26.2 µM).

What about the MIC (Staphylococcus aureus [23]) of the same compound?
Its MIC is 12.5 µg/mL (≈ 26.2 µM).

What about the “diameter of the inhibition zone (DIZ)” value (Escherichia coli [24]) of the same compound?
Its value is 11 mm.

From ChEMBL document CHEMBL3044921, “Synthesis, characterization, and SAR studies of new (1H-indol-3-yl)alkyl-3-(1H-indol-3-yl)propanamide derivatives as possible antimicrobial and antitubercular agents” (2013)
